Source: patent publication US20250024872A1, “SALTY TASTE ENHANCER” (AJINOMOTO CO., INC., priority 2022, published 2025)

Test: sensory evaluation of saltiness intensity by expert panel, 1.0% sodium chloride solution
Assay type: in vivo
Experimental: Evaluation samples 1 to 10 were prepared by adding a cyclotene diluted solution (using propylene glycol as a solvent) to 1.0% sodium chloride solution to adjust the concentration of cyclotene in the sodium chloride solution as shown in the following Table 1. The amount of propylene glycol added was adjusted to be the same in all evaluation samples.
A panel of four experts conducted a sensory evaluation of the saltiness intensity of evaluation samples 1 to 10. The sensory evaluation was performed by the four experts, who scored each evaluation sample in 0.1 point increments based on the following evaluation scale using 1.0% sodium chloride solution, 1.025% sodium chloride solution and 1.05% sodium chloride solution as reference samples, and calculated the average score of the four experts. The four experts were previously trained to have a common understanding of the following saltiness intensity evaluation scale, such as the amount of saltiness intensity change required to cause a score change of 0.1 point.
• 0.0 points: saltiness intensity equivalent to 1.0% sodium chloride solution • 5.0 points: saltiness intensity equivalent to 1.025% sodium chloride solution • 10.0 points: saltiness intensity equivalent to 1.05% sodium chloride solution

CC1=C(O)C(=O)CC1 [cyclotene]
saltiness enhancement (in words): has a saltiness enhancing action
